US10201532B2, “Compounds and their use” (ALLECRA THERAPEUTICS GMBH, priority 2010, dated 2019)

Key:
[1] = tested on: KPC-2 producing K. pneumoniae (ATCC BAA-1705); experiment: Synergistic broth micro-dilution MIC (checkerboard); assay type: cell-based, Klebsiella pneumoniae; settings: ATCC BAA-1705; for MIC: Klebsiella pneumoniae, ATCCBAA1705, no BLI, read-out: MIC of antibiotic alone (no BLI)
[2] = tested on: KPC-3 expressing E. coli (J53 R6206); experiment: microbe, parasite or virus in culture; assay type: cell-based, Escherichia coli; settings: no BLI; E. coli J53 R6206
Method: The β-lactam compound was tested for in vitro antibacterial activities by the broth micro-dilution or agar dilution method as specified in documents published by Clinical and Laboratory Standards Institute (CLSI), USA (formerly NCCLS). Approved standard M7-A7, January 2006, CLSI, Wayne, Pa., USA and M100-S18, January 2008, CLSI, Wayne, Pa., USA.
In agar dilution method briefly, stock solutions of the cephalosporins for veterinary use (e.g. 2 mg/mL) was made in water, 0.1M phosphate buffers or appropriate solvents and the solution was serially two fold diluted. Compound-1 was dissolved in water and Tazobactam (comparator BLI) in 0.1M phosphate buffer, pH 6.0 to get a solution of 1 mg/mL. Cephalosporins were screened in a concentration range of 0.5-32 μg/mL. For combination, Tazobactam or the Compound-1 described herein were tested at a fixed concentration of 4 μg/mL along with the cephalosporins concentration ranging from 0.5 to 32 μg/mL. […] The compound of formula (I) and Tazobactam were also tested individually. The bacterial inoculum was prepared by picking 3 to 5 well isolated bacterial colonies with the same morphological appearance from an 18-24 h old culture and adjusting the turbidity of the saline suspension to 0.5 McFarland turbidity standard equivalent to a bacterial population of ˜1×10^8 CFU per mL of suspension. The suspension was diluted 1:10 in saline to get a bacterial population of ˜1×10^7 CFU/mL as inoculum. This bacterial inoculum was inoculated onto the prepared petri dishes by a multipoint inoculator with each inoculum spot containing ˜1×10^4 CFU of the bacterial strain. The inoculated petri dishes were incubated at 35° C. in an ambient atmosphere for 18-20 h.

[3] = tested on: KPC-3 expressing E. coli (J53 R6206); experiment: Synergistic broth micro-dilution MIC (checkerboard); assay type: cell-based, Escherichia coli

| Structure (SMILES) | MIC [1] [µg/mL] | MIC of veterinary cephalosporin alone (no BLI) [2] [µg/mL] | MIC of antibiotic alone (no BLI) [3] [µg/mL] | MIC of BLI alone [1] [µg/mL] | MIC of Imipenem in combination with BLI ([1]; BLI at 4 μg/mL) [µg/mL] | MIC of Meropenem in combination with BLI ([1]; BLI at 4 μg/mL) [µg/mL] | MIC of Imipenem in combination with BLI ([1]; BLI at 16 μg/mL) [µg/mL] | MIC of Meropenem in combination with BLI ([1]; BLI at 16 μg/mL) [µg/mL] | MIC of BLI alone [3] [µg/mL] | MIC of Imipenem in combination with BLI ([3]; BLI at 4 μg/mL) [µg/mL] | MIC of Meropenem in combination with BLI ([3]; BLI at 4 μg/mL) [µg/mL] | MIC of Imipenem in combination with BLI ([3]; BLI at 16 μg/mL) [µg/mL] | MIC of Meropenem in combination with BLI ([3]; BLI at 16 μg/mL) [µg/mL] | MIC of antibiotic alone (no BLI) ([1]; no BLI) [µg/mL] |
| --- | --- | --- | --- | --- | --- | --- | --- | --- | --- | --- | --- | --- | --- | --- |
| NC(=O)c1cc[n+](CC2=C(C(=O)[O-])N3C(=O)[C@@H](NC(=O)Cc4cccs4)[C@H]3SC2)cc1 [Cefalonium] | > 64 | 32 | – | – | – | – | – | – | – | – | – | – | – | – |
| C[C@@H](O)[C@H]1C(=O)N2C(C(=O)O)=C(S[C@@H]3CN[C@H](C(=O)N(C)C)C3)[C@H](C)[C@H]12 [Meropenem] | 32 to 64 | – | 2 to 4 | – | – | – | – | – | – | – | – | – | – | – |
| CC[n+]1ccn(C[C@@]2(C)[C@H](C(=O)O)N3C(=O)C[C@H]3S2(=O)=O)n1 [Compound-2, 1-{[(2S,3S,5R)-2-Carboxy-3-methyl-4,4,7-trioxo-4-thia-1-azabicyclo[3.2.0]hept-3-yl]methyl}-3-ethyl-1H-1,2,3-triazol-3-ium] | – | – | – | >16 | 4 | 8 | 1 | 2 | >16 | 0.5 | <0.125 | 0.25 | <0.125 | – |
| Nc1nc(/C(=N/O)C(=O)N[C@@H]2C(=O)N3C(C(=O)O)=C(/C=C4\CCN([C@@H]5CCNC5)C4=O)CS[C@H]23)ns1 [Ceftobiprole] | > 64 | – | >32 | – | – | – | – | – | – | – | – | – | – | – |
| CO/N=C(\C(=O)N[C@@H]1C(=O)N2C(C(=O)O)=C(CSC(=O)c3ccco3)CS[C@H]12)c1csc(N)n1 [Ceftiofur] | > 64 | 16 | – | – | – | – | – | – | – | – | – | – | – | – |
| CCOC(=O)CNC(=O)C[n+]1ccn(C[C@@]2(C)[C@H](C(=O)O)N3C(=O)C[C@H]3S2(=O)=O)n1 [Compound-8, 1-{[(2S,3S,5R)-2-Carboxy-3-methyl-4,4,7-trioxo-4-thia-1-azabicyclo[3.2.0]hept-3-yl]methyl}-3-{2[(2-ethoxy-2-oxoethyl)amino]-2-oxoethyl}-1H-1,2,3-triazol-3-ium] | – | – | – | >16 | 8 | 8 | 4 | 4 | >16 | 1 | 0.25 | 0.25 | <0.125 | – |
| C=CC[n+]1ccn(C[C@@]2(C)[C@H](C(=O)O)N3C(=O)C[C@H]3S2(=O)=O)n1 [Compound-4, 1-{[(2S,3S,5R)-2-Carboxy-3-methyl-4,4,7-trioxo-4-thia-1-azabicyclo[3.2.0]hept-3-yl]methyl}-3-allyl-1H-1,2,3-triazol-3-ium] | – | – | – | >16 | 4 | 8 | 1 | 4 | >16 | 0.5 | <0.125 | 0.25 | <0.125 | – |
| CO/N=C(\C(=O)N[C@@H]1C(=O)N2C(C(=O)[O-])=C(C[n+]3cccc4c3CCCC4)CS[C@H]12)c1csc(N)n1 [Cefquinome] | – | 16 | – | – | – | – | – | – | – | – | – | – | – | >64 |
